Data taken from US20190169574A1, “IN VITRO PRODUCTION OF PANCREATIC BETA CELLS” (NESTEC S.A., priority 2016, published 2019).

Columns and labels:
adult neural stem cell = settings: in vitro and in vivo; cited from earlier work
maturing beta cells = experiment: Analysis of the cell composition of the maturing beta cells (insulin positive cells); type: cell-based; settings: Isx9 added
Excerpt: FIG. 7: FACS sorting of cells
(§1) Moreover, culturing the PE cells in suspension or in transwell culture systems in presence of Isx9 is showing the same effect of improved glucose-dependent insulin response as shown in FIG. 5 and FIG. 6. […] Both markers are critical for mediating the response of insulin secretion mediated by glucose. The expression of MAFA can also be unprecedently detected by immunohistochemistry as early as at D9 of differentiation as shown in FIG. 7.

[1] = tested on: PE cells / in vitro maturing beta cells; experiment: RNA / gene expression levels of endocrine progenitor and beta cell markers; type: cell-based
Method: FIG. 3: Early exposure of PE cells to Isx9 increases gene expression levels of endocrine progenitors as well as mature beta cell markers. A: Scheme of the protocol setup. B: Early exposure of PE cells to Isx9 (6 μM) for 2-6 days (condition 3) increases RNA expression levels of Ngn3, Nkx2.2 and NeuroD1 at D13 of differentiation, as compared to DMSO exposure (condition 1). The increase of Nkx2.2 RNA expression levels is maintained at D23 of differentiation when in vitro maturing beta cells are exposed to Isx9 (6 uM) in a two-step protocol (condition 4). Controls are represented by primary human islets. First bar of each pair is 2 mM and second bar is at 20 mM. Frozen PE cells were thawed and cultured for 1 day in I medium containing 10 U/mL DNase I in ULA 6WP flat-bottomed plates. The PE cells were subsequently transferred to S3 BASE medium (MCDB131, 8 mM D-glucose, 1.23 g/L NaHCO3, 2% FFA BSA, 1:200 ITX-X, 2 mM glutamax, 100×PS and 0.25 mM vitamin C) containing 50 ng/mL KGF, 0.25 μM Sant1, 100 nM RA and 10 μM Y and cultured for a further 2 days. The resulting cells were then cultured for 4 days using an air-liquid interface culture protocol in Transwell plates. The culture was carried out in S5 BASE medium (MCDB131, 20 mM D-glucose, 1.754 g/L NaHCO3, 2% FFA BSA, 1:200 ITX-X, 2 mM glutamax, 100×PS, 0.25 mM vitamin C and […] heparin) containing 100 nM RA, 1 μM XXI, 0.25 μM Sant1, 10 μM Alk5i II, 1 μM T3, 20 ng/mL beta-cellulin, 10 μM Y and 6 μM isoxazole 9 (ISX-9). Subsequently, the medium was exchanged for S5 BASE medium containing 25 nM RA, 1 μM XXI, 10 μM Alk5i II, 1 μM T3, 20 ng/mL beta-cellulin and 10 μM Y and the cells were cultured for a further 3 days. ISX-9 was not present in this medium. Finally, the medium was exchanged for S6 BASE medium (CMRL 1066, 10% FBS and 100×PS) containing 10 μM Alk5i II, 1 μM T3 and 10 μM Y and the cells were cultured for a further 15 days. ISX-9 was added to this medium at a concentration of 6 μM for the final 14 days of culture (i.e. the first day of culture in this step was carried out in the absence of ISX-9).

PE cells = experiment: Dose response test: toxicity and morphology of PE cell aggregates in culture with increasing doses of Isx9; type: cell-based; settings: FIG. 1
Method: FIG. 1: Morphological analysis of PE cells in culture with increasing doses of Isx9. PE cells were cultured in suspension without Isx9 (DMSO control carrier), and with increasing concentrations of Isx9 (6 μM, 12 μM, 24 μM, 48 μM and 60 μM) for 4 days and 8 days. 5× and 10× magnification pictures have been collected for each condition and time point.
Dose response tests have been performed to determine toxicity of Isx9 and the optimal concentration of Isx9 to be tested for beta cell differentiation in vitro. High concentrations of Isx9 (from 24 μM up to 60 μM) appears to be toxic as the aggregates of PE cells become cystic after 8 days in culture as shown in FIG. 1. In contrast, the morphology of the aggregates of PE cells is unchanged as compared to the control DMSO condition when using 6 and 12 μM of Isx9. In order to maintain physiological condition, a concentration of 6 μM of Isx9 has been used for the entire protocol. Exposure of maturing beta cells to Isx9 for 13 days is increasing the glucose-stimulated insulin secretion of the cells as compared to the control DMSO condition (FIG. 2). This effect is correlated with the duration of exposure to Isx9 at 6 uM. […] Isx9 induces an increase in RNA expression levels of endocrine markers such as Ngn3, but also beta cell markers as NeuroD1 and Nkx2.2.

human cadaveric islets = settings: islets that produced low levels of insulin due to prolonged culture; cited from earlier work
[2] = tested on: iPSC-derived maturing beta cells; experiment: In vitro glucose-stimulated insulin secretion test; type: cell-based
Method: FIG. 2: Exposure of PE cells to Isx9 induces glucose response properties to the cells. A: Scheme of the protocol setup. Maturing beta cells have been exposed to DMSO or Isx9 (6 μM) for 13 days, 7 days or 2 days during the maturation step. B: In vitro glucose-stimulated Insulin secretion test have been performed to measure secretion of Insulin in each condition (No Isx9, 13 days Isx9, 7 days Isx9 or 2 days Isx9) induced by low glucose concentration (2 mM) or high glucose concentration (20 mM). The stimulation index of Insulin secretion is determined between the 2 concentrations of glucose on the y axis. FIG. 4: Exposure of PE cells to Isx9 in two-steps increases glucose response properties to the cells. A: Scheme of the protocol setup. In a first step, PE cells have been exposed to DMSO (condition 1) or Isx9 (6 μM) for 2-6 days (condition 2). In a second step, maturing beta cells have been exposed to DMSO (condition 3) or Isx9 (6 uM) for 10 days (condition 4). B: In vitro glucose-stimulated Insulin secretion test have been performed to measure secretion of Insulin in each condition, induced by low glucose concentration (2 mM) or high glucose concentration (20 mM). The stimulation index of Insulin secretion is determined between the 2 concentrations of glucose on they axis. In order from left to right: NKX6.1, Pdx1, NGN3, NKX2-2, NeuroD1. Frozen PE cells were thawed and cultured for 1 day in I medium containing 10 U/mL DNase I in ULA 6WP flat-bottomed plates. The PE cells were subsequently transferred to S3 BASE medium (MCDB131, 8 mM D-glucose, 1.23 g/L NaHCO3, 2% FFA BSA, 1:200 ITX-X, 2 mM glutamax, 100×PS and 0.25 mM vitamin C) containing 50 ng/mL KGF, 0.25 μM Sant1, 100 nM RA and 10 μM Y and cultured for a further 2 days. The resulting cells were then cultured for 4 days using an air-liquid interface culture protocol in Transwell plates. […]

MAFA = MAFA detection by immunohistochemistry; type: cell-based; settings: as early as at D9 of differentiation; FIG. 7
Excerpt: as §1

[3] = Isx9 6 μM early exposure of PE cells for 2-6 days vs DMSO, D13 of differentiation, FIG. 3

**Q.** For O=C(NC1CC1)c1cc(-c2cccs2)on1 [Isx9, Isoxazole 9], which “adult neural stem cell differentiation” value (adult neural stem cell) is on record?
**A.** induce

**Q.** What about the “number or quantity of insulin positive cells as compared to DMSO” value (maturing beta cells) of the same compound?
**A.** does not receal an increase

**Q.** And the “RNA expression level of NeuroD1” value [1, 3]?
**A.** increases

**Q.** And the “RNA expression level of Ngn3” value [1, 3]?
**A.** increases

**Q.** What about the “RNA expression level of Nkx2.2” value [1, 3] of the same compound?
**A.** increases

**Q.** And the “increase of Nkx2.2 RNA expression levels at D23” value ([1]; Isx9 6 uM two-step protocol (condition 4), D23 of differentiation, FIG. 3)?
**A.** maintained

**Q.** What about the “MAFA gene expression level” value ([1]; in presence of Isx9) of the same compound?
**A.** increase

**Q.** What about the “PCSK1 gene expression level” value ([1]; in presence of Isx9) of the same compound?
**A.** increase

**Q.** And the “morphology of the aggregates of PE cells as compared to the control DMSO condition” value (PE cells; 6 and 12 μM of Isx9)?
**A.** unchanged

**Q.** And the “toxicity (aggregates of PE cells become cystic)” value (PE cells; high concentrations, from 24 μM up to 60 μM, after 8 days in culture)?
**A.** toxic

**Q.** And the “expression and secretion of insulin” value (human cadaveric islets)?
**A.** increase

**Q.** What about the “effect of Isx9 on glucose response when added in a first step at the PE cell stage (two-step protocol)” value ([2]; Isx9 6 μM, first step 2-6 days at PE stage, second step 10 days, FIG. 3 and FIG. 4) of the same compound?
**A.** reinforced

**Q.** What about the glucose-dependent insulin response ([2]; PE cells cultured in suspension or in transwell culture systems in presence of Isx9, FIG. 5 and FIG. 6) of the same compound?
**A.** improved

**Q.** And the “glucose-stimulated insulin secretion of the cells as compared to the control DMSO condition” value ([2]; maturing beta cells exposed to Isx9 6 μM for 13 days, 2 mM vs 20 mM glucose, effect correlated with duration of exposure, FIG. 2)?
**A.** increasing

**Q.** What about the “expression of MAFA by immunohistochemistry” value (MAFA) of the same compound?
**A.** detected
